Measured values as given in US10750743B2, “Pyridazinone herbicides” (E.I. DU PONT DE NEMOURS AND COMPANY, priority 2015, dated 2020).

Legend:
Assay type in all cases: in vivo
[1] = test system: ducksalad (Heteranthera limosa); experiment: Test B flooded paddy test, visual rating; conditions: Flood, 250 g ai/ha, applied to paddy water, rated after 13 to 15 d
Method in brief: (§1)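 Plants grown to the 2-leaf stage. At treatment, pots were flooded to 3 cm above the soil, compound was applied directly to the paddy water, and that depth was held throughout. After 13 to 15 d in the greenhouse, response was rated visually against controls on a 0 (no effect) to 100 (complete control) scale.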

[2] = test system: barnyardgrass (Echinochloa crus-galli); experiment: Test B flooded paddy test, visual rating; conditions: Flood, 250 g ai/ha, applied to paddy water, rated after 13 to 15 d
Method in brief: as §1

[3] = test system: sedge, umbrella (small-flower umbrella sedge, Cyperus difformis); experiment: Test B flooded paddy test, visual rating; conditions: Flood, 250 g ai/ha, applied to paddy water, rated after 13 to 15 d
Method in brief: as §1

rice (Oryza sativa) = experiment: Test B flooded paddy test, visual rating; conditions: Flood, 250 g ai/ha, applied to paddy water, rated after 13 to 15 d
Method in brief: as §1

[4] = test system: barnyardgrass (Echinochloa crus-galli); experiment: Test A preemergence, directed soil spray, visual injury rating; conditions: 0 is no effect, 100 is complete control
Method in brief: (§2)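 Compounds in a surfactant-containing solvent were applied as a directed soil spray preemergence, or postemergence to plants 2-10 cm tall at the one- to two-leaf stage, in loam-sand blend. After about 10 d in the greenhouse, injury was rated visually against untreated controls on a 0-100 scale (100 = complete control).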

[5] = test system: pigweed (Amaranthus retroflexus); experiment: as above; conditions: 0 is no effect, 100 is complete control
Method in brief: as §2

[6] = test system: foxtail, giant (giant foxtail, Setaria faberii); experiment: as above; conditions: 0 is no effect, 100 is complete control
Method in brief: as §2

kochia (Kochia scoparia) [7] = experiment: as above; conditions: 0 is no effect, 100 is complete control
Method in brief: as §2

[8] = test system: ragweed (common ragweed, Ambrosia elatior); experiment: as above; conditions: 0 is no effect, 100 is complete control
Method in brief: as §2

[9] = test system: ryegrass, It. (Italian ryegrass, Lolium multiflorum); experiment: as above; conditions: 0 is no effect, 100 is complete control
Method in brief: as §2

[10] = test system: barnyardgrass (Echinochloa crus-galli); experiment: Test A postemergence application, visual injury rating; conditions: 0 to 100 scale, 0 no effect, 100 complete control
Method in brief: as §2

[11] = test system: pigweed (Amaranthus retroflexus); experiment: as above; conditions: 0 to 100 scale, 0 no effect, 100 complete control
Method in brief: as §2

[12] = test system: wheat (Triticum aestivum); experiment: as above; conditions: 0 to 100 scale, 0 no effect, 100 complete control
Method in brief: as §2

corn (Zea mays) = experiment: as above; conditions: 0 to 100 scale, 0 no effect, 100 complete control
Method in brief: as §2

[13] = test system: foxtail, giant (giant foxtail, Setaria faberii); experiment: as above; conditions: 0 to 100 scale, 0 no effect, 100 complete control
Method in brief: as §2

kochia (Kochia scoparia) [14] = experiment: as above; conditions: 0 to 100 scale, 0 no effect, 100 complete control
Method in brief: as §2

[15] = test system: ragweed (common ragweed, Ambrosia elatior); experiment: as above; conditions: 0 to 100 scale, 0 no effect, 100 complete control
Method in brief: as §2

[16] = test system: galium (catchweed bedstraw, Galium aparine); experiment: as above; conditions: 0 to 100 scale, 0 no effect, 100 complete control
Method in brief: as §2

[17] = test system: blackgrass (Alopecurus myosuroides); experiment: as above; conditions: 0 to 100 scale, 0 no effect, 100 complete control
Method in brief: as §2

[18] = test system: ryegrass, It. (Italian ryegrass, Lolium multiflorum); experiment: as above; conditions: 0 to 100 scale, 0 no effect, 100 complete control
Method in brief: as §2

COC(=O)Oc1c(C)nn(C)c(=O)c1-c1ccc(Cl)c2oc(C)cc12 [Compound 53]
40: Plant response rating (0 to 100 scale), Pigweed ([5]; 125 g ai/ha)
0: Ducksalad plant response rating (0 to 100 scale, 0 is no effect, 100 is complete control) [1] | Barnyardgrass plant response rating (0 to 100 scale, 0 is no effect, 100 is complete control) [2] | Sedge, Umbrella plant response rating (0 to 100 scale, 0 is no effect, 100 is complete control) [3] | Rice plant response rating (0 to 100 scale, 0 is no effect, 100 is complete control) (rice (Oryza sativa)) | Plant response rating (0 to 100 scale), Barnyardgrass ([4]; 31 g ai/ha) | Plant response rating (0 to 100 scale), Pigweed ([5]; 31 g ai/ha) | Plant response rating (0 to 100 scale), Foxtail, Giant ([6]; 31 g ai/ha) | Plant response rating (0 to 100 scale), Foxtail, Giant ([6]; 125 g ai/ha) | Plant response rating (0 to 100 scale), Kochia (kochia (Kochia scoparia) [7]; 31 g ai/ha) | Plant response rating (0 to 100 scale), Kochia (kochia (Kochia scoparia) [7]; 125 g ai/ha) | Plant response rating (0 to 100 scale), Ragweed ([8]; 125 g ai/ha) | Plant response rating (0 to 100 scale), Ryegrass, It. ([9]; 31 g ai/ha) | Barnyardgrass plant response rating ([10]; 31 g ai/ha) | Wheat plant response rating ([12]; 31 g ai/ha) | Wheat plant response rating ([12]; 125 g ai/ha) | Corn plant response rating (corn (Zea mays); 31 g ai/ha) | Corn plant response rating (corn (Zea mays); 125 g ai/ha) | Foxtail, Giant plant response rating ([13]; 31 g ai/ha) | Foxtail, Giant plant response rating ([13]; 125 g ai/ha) | Kochia plant response rating (kochia (Kochia scoparia) [14]; 31 g ai/ha) | Kochia plant response rating (kochia (Kochia scoparia) [14]; 125 g ai/ha) | Ragweed plant response rating ([15]; 31 g ai/ha) | Blackgrass plant response rating ([17]; 31 g ai/ha) | Blackgrass plant response rating ([17]; 125 g ai/ha)
50: Pigweed plant response rating ([11]; 125 g ai/ha)
20: Plant response rating (0 to 100 scale), Ragweed ([8]; 31 g ai/ha)
30: Plant response rating (0 to 100 scale), Barnyardgrass ([4]; 125 g ai/ha) | Pigweed plant response rating ([11]; 31 g ai/ha) | Ragweed plant response rating ([15]; 125 g ai/ha) | Ryegrass, It. plant response rating ([18]; 125 g ai/ha)
60: Plant response rating (0 to 100 scale), Ryegrass, It. ([9]; 125 g ai/ha) | Galium plant response rating ([16]; 31 g ai/ha)
10: Barnyardgrass plant response rating ([10]; 125 g ai/ha) | Ryegrass, It. plant response rating ([18]; 31 g ai/ha)
80: Galium plant response rating ([16]; 125 g ai/ha)

CC(=O)Oc1c(C)nn(C)c(=O)c1-c1ccc(Cl)c2oc(C)cc12 [Compound 54]
30: Plant response rating (0 to 100 scale), Ryegrass, It. ([9]; 31 g ai/ha) | Pigweed plant response rating ([11]; 31 g ai/ha)
70: Sedge, Umbrella plant response rating (0 to 100 scale, 0 is no effect, 100 is complete control) [3] | Galium plant response rating ([16]; 125 g ai/ha)
60: Ryegrass, It. plant response rating ([18]; 125 g ai/ha)
50: Plant response rating (0 to 100 scale), Ryegrass, It. ([9]; 125 g ai/ha) | Galium plant response rating ([16]; 31 g ai/ha)
40: Pigweed plant response rating ([11]; 125 g ai/ha)
20: Plant response rating (0 to 100 scale), Pigweed ([5]; 125 g ai/ha) | Ryegrass, It. plant response rating ([18]; 31 g ai/ha)
0: Ducksalad plant response rating (0 to 100 scale, 0 is no effect, 100 is complete control) [1] | Barnyardgrass plant response rating (0 to 100 scale, 0 is no effect, 100 is complete control) [2] | Rice plant response rating (0 to 100 scale, 0 is no effect, 100 is complete control) (rice (Oryza sativa)) | Plant response rating (0 to 100 scale), Barnyardgrass ([4]; 31 g ai/ha) | Plant response rating (0 to 100 scale), Barnyardgrass ([4]; 125 g ai/ha) | Plant response rating (0 to 100 scale), Pigweed ([5]; 31 g ai/ha) | Plant response rating (0 to 100 scale), Foxtail, Giant ([6]; 31 g ai/ha) | Plant response rating (0 to 100 scale), Foxtail, Giant ([6]; 125 g ai/ha) | Plant response rating (0 to 100 scale), Kochia (kochia (Kochia scoparia) [7]; 31 g ai/ha) | Plant response rating (0 to 100 scale), Kochia (kochia (Kochia scoparia) [7]; 125 g ai/ha) | Plant response rating (0 to 100 scale), Ragweed ([8]; 31 g ai/ha) | Barnyardgrass plant response rating ([10]; 31 g ai/ha) | Barnyardgrass plant response rating ([10]; 125 g ai/ha) | Wheat plant response rating ([12]; 31 g ai/ha) | Wheat plant response rating ([12]; 125 g ai/ha) | Corn plant response rating (corn (Zea mays); 31 g ai/ha) | Corn plant response rating (corn (Zea mays); 125 g ai/ha) | Foxtail, Giant plant response rating ([13]; 31 g ai/ha) | Foxtail, Giant plant response rating ([13]; 125 g ai/ha) | Kochia plant response rating (kochia (Kochia scoparia) [14]; 31 g ai/ha) | Ragweed plant response rating ([15]; 31 g ai/ha) | Ragweed plant response rating ([15]; 125 g ai/ha) | Blackgrass plant response rating ([17]; 31 g ai/ha) | Blackgrass plant response rating ([17]; 125 g ai/ha)
10: Plant response rating (0 to 100 scale), Ragweed ([8]; 125 g ai/ha) | Kochia plant response rating (kochia (Kochia scoparia) [14]; 125 g ai/ha)

Cc1nn(C)c(=O)c(-c2ccc(Cl)c3ccsc23)c1O [Compound 55]
0: Ducksalad plant response rating (0 to 100 scale, 0 is no effect, 100 is complete control) [1] | Barnyardgrass plant response rating (0 to 100 scale, 0 is no effect, 100 is complete control) [2] | Sedge, Umbrella plant response rating (0 to 100 scale, 0 is no effect, 100 is complete control) [3] | Rice plant response rating (0 to 100 scale, 0 is no effect, 100 is complete control) (rice (Oryza sativa)) | Plant response rating (0 to 100 scale), Barnyardgrass ([4]; 31 g ai/ha) | Plant response rating (0 to 100 scale), Barnyardgrass ([4]; 125 g ai/ha) | Plant response rating (0 to 100 scale), Pigweed ([5]; 31 g ai/ha) | Plant response rating (0 to 100 scale), Foxtail, Giant ([6]; 31 g ai/ha) | Plant response rating (0 to 100 scale), Foxtail, Giant ([6]; 125 g ai/ha) | Plant response rating (0 to 100 scale), Kochia (kochia (Kochia scoparia) [7]; 31 g ai/ha) | Plant response rating (0 to 100 scale), Ragweed ([8]; 31 g ai/ha) | Plant response rating (0 to 100 scale), Ragweed ([8]; 125 g ai/ha) | Barnyardgrass plant response rating ([10]; 31 g ai/ha) | Wheat plant response rating ([12]; 31 g ai/ha) | Wheat plant response rating ([12]; 125 g ai/ha) | Corn plant response rating (corn (Zea mays); 31 g ai/ha) | Corn plant response rating (corn (Zea mays); 125 g ai/ha) | Foxtail, Giant plant response rating ([13]; 31 g ai/ha) | Foxtail, Giant plant response rating ([13]; 125 g ai/ha) | Ragweed plant response rating ([15]; 31 g ai/ha) | Blackgrass plant response rating ([17]; 31 g ai/ha)
100: Plant response rating (0 to 100 scale), Ryegrass, It. ([9]; 125 g ai/ha) | Kochia plant response rating (kochia (Kochia scoparia) [14]; 125 g ai/ha) | Galium plant response rating ([16]; 125 g ai/ha)
10: Barnyardgrass plant response rating ([10]; 125 g ai/ha) | Blackgrass plant response rating ([17]; 125 g ai/ha)
30: Pigweed plant response rating ([11]; 31 g ai/ha) | Ragweed plant response rating ([15]; 125 g ai/ha)
20: Plant response rating (0 to 100 scale), Kochia (kochia (Kochia scoparia) [7]; 125 g ai/ha)
70: Ryegrass, It. plant response rating ([18]; 125 g ai/ha)
60: Plant response rating (0 to 100 scale), Pigweed ([5]; 125 g ai/ha) | Pigweed plant response rating ([11]; 125 g ai/ha)
40: Kochia plant response rating (kochia (Kochia scoparia) [14]; 31 g ai/ha) | Ryegrass, It. plant response rating ([18]; 31 g ai/ha)
80: Plant response rating (0 to 100 scale), Ryegrass, It. ([9]; 31 g ai/ha) | Galium plant response rating ([16]; 31 g ai/ha)
